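A five-concentration, 48-hour dose response in 96-well plates underlies each endpoint, interpolated linearly between surrounding concentrations. GI50 marks 50% less growth. At the TGI there is no net growth.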

Among the test systems are 786-0 renal; COLO 205 colon; K-562 leukemia; MALME-3M melanoma; MDA-MB-231 breast; OVCAR-3 ovarian; RPMI-8226 leukemia; SF-268 CNS; SK-MEL-2 melanoma; SNB-75 CNS.
Common to all, as to test: NCI-60 cell line screen, 48 h

`CCOC(=O)C1=C(c2ccccc2)N(c2ccc(OC)cc2)[C@]2(C#N)C(O)=C(Cl)C(Cl)=C(O)[C@]12C#N`: the GI50 in the test with 786-0 renal was 21.8 µM; in the test with COLO 205 colon it was 18.6 µM; with K-562 leukemia, 17.6 µM; in the test with MALME-3M melanoma, 18.7 µM; in the test on MDA-MB-231 breast it was 20.1 µM; in the test with OVCAR-3 ovarian it was 22.7 µM. In addition, the GI50 was 1.97 µM in the test with RPMI-8226 leukemia, 24 µM in the test on SF-268 CNS, 32.4 µM with SK-MEL-2 melanoma and 18.4 µM with SNB-75 CNS. Also, the TGI was 44.9 µM in the test with 786-0 renal; 33.5 µM in the test on COLO 205 colon; 34.6 µM in the test with K-562 leukemia; 42.6 µM with MALME-3M melanoma; 44.3 µM in the test on MDA-MB-231 breast; 53.2 µM in the test on OVCAR-3 ovarian. The TGI was 18 µM in the test with RPMI-8226 leukemia, 52.2 µM in the test on SF-268 CNS, over 100 µM in the test on SK-MEL-2 melanoma and 36.7 µM in the test with SNB-75 CNS.
Regarding `NC(=O)NCCSC1CCCCC1O` (stereo not given), the TGI with 786-0 renal, in the test with COLO 205 colon, with K-562 leukemia, in the test on MALME-3M melanoma, with MDA-MB-231 breast and in the test on OVCAR-3 ovarian was over 100 µM throughout. Also, the TGI in the test with RPMI-8226 leukemia, in the test with SF-268 CNS, in the test with SK-MEL-2 melanoma and in the test on SNB-75 CNS was over 100 µM throughout.
In the case of `CCN1CCC(CC(=O)Nc2n[nH]c3nc(-c4cccs4)c(Br)cc23)CC1`, the GI50 in the test with 786-0 renal is 10.7 µM; in the test on COLO 205 colon it was 3.91 µM; in the test with K-562 leukemia it was 7.61 µM; in the test on MALME-3M melanoma it was 6.42 µM; with MDA-MB-231 breast it was 14.7 µM; in the test with OVCAR-3 ovarian, 10.4 µM. The GI50 was 9.42 µM in the test with RPMI-8226 leukemia, 11.5 µM with SF-268 CNS, 6.24 µM in the test with SK-MEL-2 melanoma and 2.34 µM with SNB-75 CNS. Besides, the TGI was over 25 µM in the test on 786-0 renal; 8.16 µM with COLO 205 colon; over 19.2 µM with K-562 leukemia; 13.4 µM in the test on MALME-3M melanoma; over 25 µM with MDA-MB-231 breast; over 25 µM with OVCAR-3 ovarian. Further, the TGI in the test with RPMI-8226 leukemia is 24.8 µM; in the test with SF-268 CNS, over 25 µM; in the test on SK-MEL-2 melanoma, 11.4 µM; in the test on SNB-75 CNS, over 20.4 µM.
In the case of `O=C(/C=C\c1ccc2ccccc2n1)c1cc(Cl)ccc1O`, the GI50 with 786-0 renal was 4.28 µM; with COLO 205 colon it was 5.74 µM; with K-562 leukemia, 3.46 µM; with MALME-3M melanoma, 8.64 µM; in the test with MDA-MB-231 breast, 5.18 µM; in the test on OVCAR-3 ovarian, 5.31 µM. Besides, the GI50 is 2.15 µM in the test on RPMI-8226 leukemia, 12.2 µM in the test with SF-268 CNS, 11.7 µM with SK-MEL-2 melanoma and 6.58 µM with SNB-75 CNS. Moreover, the TGI came out at 14.6 µM in the test with 786-0 renal; 18.4 µM in the test with COLO 205 colon; 23.2 µM with K-562 leukemia; 25.8 µM in the test with MALME-3M melanoma; 24.3 µM in the test with MDA-MB-231 breast; 17.1 µM in the test on OVCAR-3 ovarian. For the same compound, the TGI with RPMI-8226 leukemia came out at 5.83 µM; in the test on SF-268 CNS, 27.2 µM; in the test on SK-MEL-2 melanoma, 45.2 µM; with SNB-75 CNS, 21 µM.
On to `COc1ccc(C(=O)CC(c2ccc(OC)c(OC)c2)c2c(O)c3ccccc3oc2=O)cc1OC` (stereo not given), for which the TGI in the test with 786-0 renal, in the test with COLO 205 colon, in the test with K-562 leukemia, with MALME-3M melanoma, in the test with MDA-MB-231 breast and in the test on OVCAR-3 ovarian was over 100 µM each time. In addition, the TGI with RPMI-8226 leukemia, with SF-268 CNS, in the test with SK-MEL-2 melanoma and in the test with SNB-75 CNS was over 100 µM throughout.
Turning to `CC1(C)Cc2c(Br)c(Br)c(Br)c(OCC(O)CN3CCOCC3)c2O1` (stereo not given), the GI50 in the test on 786-0 renal is 13 µM; in the test with COLO 205 colon, 13.4 µM; with K-562 leukemia it was 3.1 µM; with MALME-3M melanoma, 15 µM; in the test on MDA-MB-231 breast, 10.1 µM; with OVCAR-3 ovarian, 12.3 µM. Also, the GI50 is 3.82 µM in the test with RPMI-8226 leukemia, 12.1 µM in the test on SF-268 CNS, 7.64 µM in the test with SK-MEL-2 melanoma and 12.6 µM in the test on SNB-75 CNS. Further, the TGI was 28.6 µM in the test on 786-0 renal; 27 µM with COLO 205 colon; 14.3 µM in the test with K-562 leukemia; 32.7 µM in the test with MALME-3M melanoma; 22.5 µM in the test on MDA-MB-231 breast; 28.5 µM with OVCAR-3 ovarian. Further, the TGI amounted to 18.7 µM in the test on RPMI-8226 leukemia, 27.8 µM with SF-268 CNS, 23.8 µM in the test on SK-MEL-2 melanoma and 38.1 µM in the test with SNB-75 CNS.
Take `Cc1ccc2[nH]c(C(=O)NN3C(=O)C(C)SC34CCCCC4C)c(-c3ccccc3)c2c1` (stereo not given): the GI50 with 786-0 renal was 22.2 µM; in the test with COLO 205 colon it was 18 µM; in the test on K-562 leukemia, 18.5 µM; in the test on MALME-3M melanoma, 20.4 µM; in the test on MDA-MB-231 breast, 17.4 µM; with OVCAR-3 ovarian it was 14.4 µM. For the same compound, the GI50 in the test on RPMI-8226 leukemia is 21.4 µM; with SF-268 CNS, 18.8 µM; with SK-MEL-2 melanoma, 12 µM; with SNB-75 CNS it was 21.2 µM. Moreover, the TGI worked out at 50.9 µM with 786-0 renal; 38.9 µM with COLO 205 colon; 60 µM with K-562 leukemia; 38.1 µM with MALME-3M melanoma; 34.9 µM in the test on MDA-MB-231 breast; 31.7 µM in the test with OVCAR-3 ovarian. Moreover, the TGI in the test on RPMI-8226 leukemia came to 64 µM; with SF-268 CNS it was 43.6 µM; in the test on SK-MEL-2 melanoma it was 26.5 µM; in the test with SNB-75 CNS, 41.7 µM.
On to `Cc1ccc(C[P+](c2ccccc2)(c2ccccc2)c2ccccc2)cc1`, for which the GI50 was 1.71 µM in the test on 786-0 renal; 0.74 µM in the test with COLO 205 colon; 0.574 µM in the test on K-562 leukemia; 0.428 µM in the test with MALME-3M melanoma; 2.54 µM with MDA-MB-231 breast; 0.638 µM with OVCAR-3 ovarian. For the same compound, the GI50 in the test on RPMI-8226 leukemia was 0.201 µM; in the test with SF-268 CNS, 2.7 µM; with SK-MEL-2 melanoma it was 2.12 µM; in the test on SNB-75 CNS, 1.55 µM. The TGI in the test on 786-0 renal is 8.02 µM; with COLO 205 colon it was 6.7 µM; in the test with K-562 leukemia, over 24.6 µM; in the test on MALME-3M melanoma, 14.5 µM; with MDA-MB-231 breast, 29.3 µM; in the test on OVCAR-3 ovarian it was 5.19 µM. The TGI was 18 µM in the test on RPMI-8226 leukemia, over 57.8 µM with SF-268 CNS, over 100 µM in the test on SK-MEL-2 melanoma and 18.8 µM with SNB-75 CNS.

(Values after PubChem BioAssay (NCI).)
